Reference: paper PMC12298648, “An Evaluation of the Cytotoxicity and Safety Profile of Usnic Acid for a Broad Panel of Human Cancers and Normal Cells with Respect to Its Enantiospecificity” (Molecules, 2025)
≈ marks a conversion by molar mass, not a printed value.

Experiments:
DLD-1 = test: MTT viability assay, DLD-1 colon cancer cells; format: cell-based, human; details: for Cell viability: DLD-1, 24 h; for IC50: Homo sapiens
Excerpt: (§1) Cell lines of different origins were used in the study and grouped as follows: prostate panel (human prostate carcinomas: DU145, derived from metastatic site: brain; grade IV PC3, derived from metastatic site: bone; LNCaP, derived from the metastatic site: lymph node; prostate epithelial, PNT2), colon panel (colorectal adenocarcinomas: HT29, originating from a primary tumor; Duke’s type C DLD-1, with the potential to lymph node metastasis; highly metastatic HCT116; colon epithelial cells CCD 841 CoN), thyroid panel (follicular thyroid carcinoma FTC133, anaplastic thyroid carcinoma 8505C, papillary thyroid carcinoma TPC-1, normal thyroid follicular epithelial Nthy-ori 3–1), breast panel (ER-positive breast adenocarcinoma MCF7, ER-negative breast adenocarcinoma MDA-MB-231, breast epithelial MCF10A), brain panel (neuroblastoma SH-SY5Y, glioblastoma U-87 MG, murine astrocytes C8D1A). All cell lines were purchased from Merck (Darmstadt, Germany).
(§2) Cells were grown under standard conditions (37 °C, 5% CO2) and culture media (DMEM/F12 for PNT2, PC3, FTC133, 8505 C, MDA-MB-231, TPC-1; DMEM Low Glucose for DU145; DMEM High Glucose for HCT116, DLD-1, SH-SY5Y, U87MG, C8D1A; MEM with NEAA for MCF7; MEM for CCD 841 CoN; McCoy’s for HT29; RPMI1640 with sodium pyruvate for LNCaP; DMEM/F12 with 20 ng/mL epidermal growth factor (EGF), 10 μg/mL insulin, 0.5 μg/mL hydrocortisone, 100 ng/mL cholera toxin) for MCF10A), supplemented with 10% fetal bovine serum (FBS) or 5% donor horse serum for MCF10A, and 1% antibiotics solution (10,000 U penicillin and 10 mg streptomycin/mL). The tested substances were prepared as 10 mg/mL stock solutions in DMSO and further diluted in the culture media to the working concentrations. Cells were treated with UA enantiomers at the concentration range of 0–50 µg/mL. The influence of DMSO on cell viability was also examined, with the final concentration […], and no toxic effect was noted.
(§3) The cells were seeded onto 96-well plates at a density of 1.5 × 10^4 cells/well. After 24 h UA enantiomers were added. Cell viability was determined after 24, 48, and 72 h by the MTT assay, as described previously. Doxorubicin was used as a reference cytostatic drug. All analyses were performed in triplicate; cell viability was expressed as % of control, untreated cells (mean ± SD), and IC50 values (concentration at which cell viability is inhibited by 50%), if possible.

CCD 841 CoN = test: MTT viability assay, normal colon epithelial cells; format: cell-based, human; details: for Cell viability: CCD 841 CoN, 24 h; for IC50: Homo sapiens, CCD-841CoN
Excerpt: as §1, §2, §3

DU145 = test: MTT viability assay, DU145 prostate cancer cells; format: cell-based, human; details: for Cell viability: DU145, 24 h; for IC50: Homo sapiens, DU-145
Excerpt: as §1, §2, §3
(§4) The selectivity index (SI) was calculated, if possible, by dividing the IC50 value obtained for non-cancerous cells line by the IC50 values obtained for appropriate cancer cell line, as described previously. […] The values above 3 indicate good selectivity.

PC3 = test: MTT viability assay, PC3 prostate cancer cells; format: cell-based, human; details: for IC50: Homo sapiens, PC-3; for Cell viability: PC3, 24 h
Excerpt: as §1, §2, §3, §4

TPC-1 = test: MTT viability assay, TPC-1 papillary thyroid carcinoma cells; format: cell-based, human; details: for IC50: Homo sapiens, TPC1; for Cell viability: TPC-1, 24 h
Excerpt: as §1, §2, §3, §4

FTC133 = test: MTT viability assay, FTC133 follicular thyroid carcinoma cells; format: cell-based, human; details: for Cell viability: FTC-133, 24 h; for IC50: Homo sapiens, FTC-133
Excerpt: as §1, §2, §3, §4

MDA-MB-231 = test: MTT viability assay, MDA-MB-231 breast cancer cells; format: cell-based, human; details: for IC50: Homo sapiens; for Cell viability: MDA-MB-231, 24 h
Excerpt: as §1, §2, §3, §4

SH-SY5Y = test: MTT viability assay, neuroblastoma SH-SY5Y cells; format: cell-based, human; details: SHSY5Y, 24 h
Excerpt: as §1, §2, §3

WM793 cells = system: WM793 cells; design: method as in PMID 34577645; details: WM793, 48 h; cited from earlier work

**Q.** What does the source list for CC(=O)C1=C(O)C=C2Oc3c(C(C)=O)c(O)c(C)c(O)c3[C@@]2(C)C1=O [UA(+), (+)-usnic acid]?
**A.** Cell viability (DLD-1; 2.5 µg/mL): 96.51 % of control; Cell viability (DLD-1; 5 µg/mL): 89.29 % of control; Cell viability (DLD-1; 10 µg/mL): 75.63 % of control; Cell viability (DLD-1; 20 µg/mL): 82.11 % of control; Cell viability (DLD-1; 30 µg/mL): 71.08 % of control; Cell viability (DLD-1; 40 µg/mL): 68.28 % of control; Cell viability (DLD-1; 50 µg/mL): 68.46 % of control; IC50 (DLD-1; DLD-1, 48 h): 26.1 µg/mL (≈ 75.8 µM); IC50 (DLD-1; DLD-1, 72 h): 19.6 µg/mL (≈ 56.9 µM); Cell viability (CCD 841 CoN; 2.5 µg/mL): 104.22 % of control; Cell viability (CCD 841 CoN; 5 µg/mL): 103.61 % of control; Cell viability (CCD 841 CoN; 10 µg/mL): 99.72 % of control; Cell viability (CCD 841 CoN; 20 µg/mL): 111.77 % of control; Cell viability (CCD 841 CoN; 30 µg/mL): 101.26 % of control; Cell viability (CCD 841 CoN; 40 µg/mL): 95.35 % of control; Cell viability (CCD 841 CoN; 50 µg/mL): 96.52 % of control; IC50 (CCD 841 CoN; 48 h): > 50 µg/mL; IC50 (CCD 841 CoN; 72 h): > 50 µg/mL; Cell viability (DU145; 2.5 µg/mL): 102.26 % of control; Cell viability (DU145; 5 µg/mL): 94.38 % of control; Cell viability (DU145; 10 µg/mL): 86.92 % of control; Cell viability (DU145; 20 µg/mL): 87.54 % of control; Cell viability (DU145; 30 µg/mL): 72.41 % of control; Cell viability (DU145; 40 µg/mL): 68.15 % of control; Cell viability (DU145; 50 µg/mL): 67.13 % of control; IC50 (DU145; DU145, 48 h): 11.5 µg/mL (≈ 33.4 µM); IC50 (DU145; DU145, 72 h): 12.1 µg/mL (≈ 35.1 µM); selectivity index (SI) (DU145; IC50 PNT2 / IC50 DU145, 48 h): 3.25; selectivity index (SI) (DU145; IC50 PNT2 / IC50 DU145, 48 h, listed as (+)-UA): exceeding 3; selectivity index (SI) (DU145; IC50 PNT2 / IC50 DU145, 72 h): 1.68; IC50 (PC3; PC3, 48 h): 39.6 µg/mL (≈ 115 µM); IC50 (PC3; PC3, 72 h): 19.1 µg/mL (≈ 55.5 µM); selectivity index (SI) (PC3; IC50 PNT2 / IC50 PC3, 48 h): 0.94; selectivity index (SI) (PC3; IC50 PNT2 / IC50 PC3, 72 h): 1.07; Cell viability (PC3; 2.5 µg/mL): 100.80 % of control; Cell viability (PC3; 5 µg/mL): 99.30 % of control; Cell viability (PC3; 10 µg/mL): 104.63 % of control; Cell viability (PC3; 20 µg/mL): 96.62 % of control; Cell viability (PC3; 30 µg/mL): 83.08 % of control; Cell viability (PC3; 40 µg/mL): 70.10 % of control; Cell viability (PC3; 50 µg/mL): 64.83 % of control; IC50 (TPC-1; TPC-1, 48 h): > 50 µg/mL; IC50 (TPC-1; TPC-1, 72 h): 28.2 µg/mL (≈ 81.9 µM); selectivity index (SI) (TPC-1; IC50 Nthy ori 3-1 / IC50 TPC-1, 72 h): 1.18; Cell viability (TPC-1; 2.5 µg/mL): 101.62 % of control; Cell viability (TPC-1; 5 µg/mL): 105.96 % of control; Cell viability (TPC-1; 10 µg/mL): 105.31 % of control; Cell viability (TPC-1; 20 µg/mL): 97.02 % of control; Cell viability (TPC-1; 30 µg/mL): 95.96 % of control; Cell viability (TPC-1; 40 µg/mL): 91.23 % of control; Cell viability (TPC-1; 50 µg/mL): 87.50 % of control; Cell viability (FTC133; 2.5 µg/mL): 92.33 % of control; Cell viability (FTC133; 5 µg/mL): 89.00 % of control; Cell viability (FTC133; 10 µg/mL): 89.83 % of control; Cell viability (FTC133; 20 µg/mL): 93.83 % of control; Cell viability (FTC133; 30 µg/mL): 74.75 % of control; Cell viability (FTC133; 40 µg/mL): 75.75 % of control; Cell viability (FTC133; 50 µg/mL): 78.08 % of control; IC50 (FTC133; FTC133, 48 h): > 50 µg/mL; IC50 (FTC133; FTC133, 72 h): 35.1 µg/mL (≈ 102 µM); selectivity index (SI) (FTC133; IC50 Nthy ori 3-1 / IC50 FTC133, 72 h): 0.95; IC50 (MDA-MB-231; MDA-MB-231, 48 h): > 50 µg/mL; IC50 (MDA-MB-231; MDA-MB-231, 72 h): 15.8 µg/mL (≈ 45.9 µM); selectivity index (SI) (MDA-MB-231; IC50 MCF10A / IC50 MDA-MB-231, 72 h): 2.83; Cell viability (MDA-MB-231; 2.5 µg/mL): 100.36 % of control; Cell viability (MDA-MB-231; 5 µg/mL): 95.55 % of control; Cell viability (MDA-MB-231; 10 µg/mL): 87.62 % of control; Cell viability (MDA-MB-231; 20 µg/mL): 81.99 % of control; Cell viability (MDA-MB-231; 30 µg/mL): 77.62 % of control; Cell viability (MDA-MB-231; 40 µg/mL): 67.93 % of control; Cell viability (MDA-MB-231; 50 µg/mL): 69.24 % of control; Cell viability (SH-SY5Y; 2.5 µg/mL): 99.49 % of control; Cell viability (SH-SY5Y; 5 µg/mL): 97.56 % of control; Cell viability (SH-SY5Y; 10 µg/mL): 97.95 % of control; Cell viability (SH-SY5Y; 20 µg/mL): 96.15 % of control; Cell viability (SH-SY5Y; 30 µg/mL): 95.77 % of control; Cell viability (SH-SY5Y; 40 µg/mL): 92.95 % of control; Cell viability (SH-SY5Y; 50 µg/mL): 96.54 % of control; IC50 (WM793 cells): 30.05 µg/mL (≈ 87.3 µM)
